Measurements taken from publication PMC6606608, “Chemical logic of MraY inhibition by antibacterial nucleoside natural products” (Nature Communications, 2019).
Where two headings read alike, the source gives them in different places.

Legend:
[1] = biological target: T1, MraYAA (phospho-MurNAc-pentapeptide translocase, MraY) (Aquifex aeolicus, UniProt O66465); assay: X-ray crystal structure ([…] Å); UMP-Glo enzyme inhibition IC50; assay type: biochemical
T1 construct: Codon-optimized His-MBP-PreScission fusion, E. coli C41(DE3), DDM-extracted, tag cleaved; IC50 on MraYAA alone (NB7 only in crystals)
T1 sequence (O66465 1-359): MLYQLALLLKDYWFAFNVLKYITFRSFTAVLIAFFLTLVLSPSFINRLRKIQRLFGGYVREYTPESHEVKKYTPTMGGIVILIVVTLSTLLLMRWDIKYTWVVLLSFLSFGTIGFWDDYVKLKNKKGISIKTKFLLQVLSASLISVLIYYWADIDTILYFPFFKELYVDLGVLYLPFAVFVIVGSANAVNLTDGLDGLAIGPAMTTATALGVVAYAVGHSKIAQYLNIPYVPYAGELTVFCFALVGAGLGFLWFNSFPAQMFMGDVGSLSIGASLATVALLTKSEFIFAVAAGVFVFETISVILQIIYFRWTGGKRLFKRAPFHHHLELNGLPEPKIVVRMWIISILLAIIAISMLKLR

[2] = biological target: T1, MraYAA (phospho-MurNAc-pentapeptide translocase, MraY); assay: as above; assay type: biochemical; remark: listed apart in the source

SMILES | IC50 [1] | IC50 [2]
CO[C@H]1[C@@H](O)[C@H](n2ccc(=O)[nH]c2=O)O[C@@H]1[C@@H](O[C@H]1OC(C(=O)N[C@H]2CCCCNC2=O)=C[C@H](O)[C@@H]1O)C(N)=O [capuramycin] | 185 nM | –
CSCC[C@H](NC(=O)N[C@@H](Cc1cccc(O)c1)C(=O)O)C(=O)N[C@H](C(=O)N/C=C1/O[C@@H](n2ccc(=O)[nH]c2=O)[C@H](O)[C@@H]1O)[C@H](C)N(C)C(=O)[C@@H](N)Cc1cccc(O)c1 [3′-hydroxymureidomycin A] | – | 52 nM
